Measured values as given in paper PMC11736144, “A sleepy cannabis constituent: cannabinol and its active metabolite influence sleep architecture in rats” (Neuropsychopharmacology, 2024).
Where two headings read alike, the source gives them in different places.

Tests used:
male Long-Evans rats [1] = experiment: Repeated CBN dosing (15 days) polysomnography in rats; assay type: in vivo, rat; settings: CBN 10 mg/kg IP daily for 15 days
Protocol: In the repeated dosing experiment, eight rats were randomly assigned to vehicle condition and eight to the CBN 10 mg/kg condition. Rats were administered the same treatment at ZT13 each day for 15 days, however, telemetry recordings were taken on days 1, 8, and 15 of respective treatments, and the response was compared between subjects.

[2] = Pharmacokinetic analysis of CBN and metabolites in rat plasma and brain (LC-MS/MS); assay type: in vivo
Protocol: Rats received 10 mg/kg CBN IP at approximately ZT13. Rats were then anesthetized with isoflurane at selected ZT points (13, 13.5, 14, 15, 17, 19, and 21) and blood was collected by terminal cardiac puncture. Brains were harvested, snap frozen on dry ice and plasma was isolated via centrifugation at 9000 × g for 10 min at 4 °C. All tissues were stored at −80 °C until analysis. CBN and metabolite concentrations in plasma and brain samples were assayed by liquid chromatography-tandem mass spectrometry (LC–MS/MS) using a using a Shimadzu Nexera LC-30AD UHPLC system coupled to a Shimadzu SPD-20AV photodiode array detector and a Shimadzu LC–MS-8040 triple-quadrupole mass spectrometer, equipped with an electrospray ionization (ESI) source (Shimadzu Corp.; Kyoto, Japan) as described previously.
LC-MS/MS. Plasma samples (50 µL) were spiked with internal standard (12.5 µg/mL d3-THC, 5 µL) and protein precipitation was achieved by vortex-mixing with a 3x volume of ice-cold acetonitrile. The organic layer was isolated by centrifugation (6000 g for 10 min, 4 °C) and evaporated to dryness using N2 gas. Samples were reconstituted in acetonitrile (90 µL) and 0.1% ammonium formate in water (300 µL) for supported-liquid extraction (SLE) using dichloromethane and methyl tert-butyl ether Biotage Isolute SLE+ columns (Uppsala, Sweden) as previously described. Brain samples were prepared as described for plasma samples with minor modifications. Briefly, each half brain was homogenised in methanol: water (2:1, 10x, w/v) and spiked with d3-THC as an internal standard. Homogenates were centrifuged (20,000 g for 30 min, 4 °C). Supernatants were then extracted and prepared as described above.
Quantification of CBN, 11-OH-CBN and 11-COOH-CBN in plasma and brain samples was performed by comparing experimental samples to eight-point standard curves prepared with known amounts of cannabinoid. Plasma and brain concentrations at each time point were averaged and pharmacokinetic parameters were calculated by noncompartmental analysis. Elimination rate constants were determined by linear regression of the terminal component of the concentration-time curve using GraphPad Prism 8.2 (La Jolla, USA). The log-linear trapezoidal method was used to calculate the area under concentration-time curve using equations described previously.

human CB2 receptors = molecular target: T1, human CB2 receptors (Homo sapiens, UniProt P34972); experiment: Membrane potential (GIRK) assay in AtT20 cells, human CB2; assay type: cell-based; settings: at 10 µM; normalized to 1 µM CP 55,940
T1 construct: expressed in transfected cells; host or cells: mouse AtT20 FlpIn cells
T1 sequence (P34972 whole entry): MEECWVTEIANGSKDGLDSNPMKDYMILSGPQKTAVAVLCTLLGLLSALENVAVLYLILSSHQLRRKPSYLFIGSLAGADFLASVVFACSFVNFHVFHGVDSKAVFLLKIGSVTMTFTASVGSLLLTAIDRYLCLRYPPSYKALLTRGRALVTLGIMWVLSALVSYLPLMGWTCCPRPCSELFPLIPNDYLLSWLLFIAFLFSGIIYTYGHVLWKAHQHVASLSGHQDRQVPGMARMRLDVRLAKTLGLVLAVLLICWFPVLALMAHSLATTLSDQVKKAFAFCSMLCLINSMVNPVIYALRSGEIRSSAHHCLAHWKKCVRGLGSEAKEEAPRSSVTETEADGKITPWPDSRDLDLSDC

[3] = system: non-clinical sample of poor sleepers; design: method as in PMID 37796540; settings: 20 mg CBN alone, self-reported measures, vs placebo; cited from earlier work
rats [4] = system: rats; design: method as in PMID 168604; settings: cited from earlier work
rats [5] = settings: cited from earlier work
[6] = cited from earlier work
[7] = rats, oral vs IP of the current study; cited from earlier work
human CB1 receptors [8] = molecular target: T2, human CB1 receptors (Homo sapiens, UniProt P21554); design: expressed in transfected cells; method as in PMID 7565624, PMID 9690851; settings: some studies; cited from earlier work
T2 sequence (P21554 whole entry): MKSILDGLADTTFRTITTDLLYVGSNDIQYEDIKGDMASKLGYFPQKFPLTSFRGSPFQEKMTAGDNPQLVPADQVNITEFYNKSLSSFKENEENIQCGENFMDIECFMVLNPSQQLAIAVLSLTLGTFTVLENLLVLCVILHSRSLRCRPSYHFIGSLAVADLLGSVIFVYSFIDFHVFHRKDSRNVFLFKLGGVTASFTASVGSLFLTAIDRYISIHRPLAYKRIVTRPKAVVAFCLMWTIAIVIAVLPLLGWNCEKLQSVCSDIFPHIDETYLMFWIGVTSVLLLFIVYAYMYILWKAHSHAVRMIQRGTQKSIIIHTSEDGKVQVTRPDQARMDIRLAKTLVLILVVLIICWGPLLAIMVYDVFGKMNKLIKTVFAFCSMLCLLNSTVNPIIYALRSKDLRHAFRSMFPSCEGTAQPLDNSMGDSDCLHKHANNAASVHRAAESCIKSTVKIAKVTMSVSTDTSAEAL

male Long-Evans rats [9] = experiment: Acute polysomnography (wireless EEG/EMG telemetry) in rats
human CB1 receptors [10] = molecular target: T2, human CB1 receptors; experiment: cell-based; assay type: cell-based; design: expressed in transfected cells; host or cells: mouse AtT20 FlpIn cells
[11] = days 1, 8, 15, not subject to tolerance
[12] = rats, 10 and 30 mg/kg CBN IP, CBN 99.2% pure with 0.8% Δ8-THC, ref Järbe et al (1987)
[13] = acute IP at ZT13 vs vehicle, CBN 10, 30, 100 mg/kg, 11-OH-CBN 1, 3, 10 mg/kg
[14] = acute IP at ZT13 vs vehicle, CBN 10, 30, 100 mg/kg, zolpidem 10 mg/kg, 11-OH-CBN 1, 3, 10 mg/kg

With `CCCCCc1cc(O)c2c(c1)OC(C)(C)c1ccc(C)cc1-2` [CBN, cannabinol] the “% NREM” value (male Long-Evans rats [1]; days 1, 8, 15) was “increased % NREM initially on days 1 and 8, however this effect was diminished by day 15”, the “% REM” value (male Long-Evans rats [1]; days 1, 8, 15) was “affected” and the “% quiet wake” value (male Long-Evans rats [1]; days 1, 8, 15) was “affected”. For the same compound, the REM bout duration (male Long-Evans rats [1]; days 1, 8, 15) was “affected”, the REM bout number (male Long-Evans rats [1]; days 1, 8, 15) was “affected” and the total wake time (male Long-Evans rats [1]; days 1, 8, 15) was “decreased”. The “NREM sleep onset latency” value (male Long-Evans rats [1]; days 1, 8, 15, main effect) was “increased”, the “REM sleep onset latency” value (male Long-Evans rats [1]; days 1, 8, 15, main effect) was “increased” and the NREM bout duration (male Long-Evans rats [1]; [11]) was “increased”. For the same compound, the NREM bout number (male Long-Evans rats [1]; [11]) was “decreased”, the “% active wake” value (male Long-Evans rats [1]; days 1, 8, 15, subject to tolerance) was “decreased” and the “total sleep time over days” value (male Long-Evans rats [1]; recordings days 1, 8, 15, between-subjects vs vehicle, n = 8) was “increased”. For the same compound, the Tmax ([2]; ip, rat brain after CBN 10 mg/kg, read-out: brain Tmax) was 2 h, the Tmax ([2]; ip, rat plasma after CBN 10 mg/kg, read-out: plasma Tmax (converted)) was 0.5 h and the half-life ([2]; ip, rat, after CBN 10 mg/kg, similar in plasma and brain, read-out: half-life in plasma and brain (converted)) was ~2 h. The “Brain AUC∞” value ([2]; rat brain after CBN 10 mg/kg IP, analyte as labelled) was 1623 pg hour/mg brain, the “Brain Cmax” value ([2]; rat brain after CBN 10 mg/kg IP, analyte as labelled, n = 4) was 373 ± 26 pg/mg brain and the half-life ([2]; rat brain after CBN 10 mg/kg IP, analyte as labelled, read-out: Brain t½ (converted)) was 2.2 h. The “Brain Cmax” value ([2]; rat brain following systemic administration of CBN) was 1.2 µM, the “Plasma AUC∞” value ([2]; rat plasma after CBN 10 mg/kg IP, analyte as labelled) was 775 ng·h/mL and the Cmax ([2]; rat plasma after CBN 10 mg/kg IP, analyte as labelled, n = 4) was 374 ± 34 ng/mL. For the same compound, the half-life ([2]; rat plasma after CBN 10 mg/kg IP, analyte as labelled, read-out: Plasma t½ (converted)) was 1.93 h, the Brain/plasma ratio ([2]; rat, after CBN 10 mg/kg IP, analyte as labelled) was ~2 and the Kp ([2]; rat, brain and plasma, ip, 10 mg/kg, rat, after CBN 10 mg/kg IP, analyte as labelled, read-out: Brain/plasma ratio) was 2.09. The Cmax ([2]; rat, plasma, intraperitoneal, rats, 10 mg/kg CBN dose) was 374 ng/mL, the “activity at CB2” value (human CB2 receptors) was < 20% and the “number of awakenings and overall sleep disturbance” value [3] was “significantly reduced”. The sleep onset latency [3] was “did not influence”, the pentobarbital-induced sleep time (rats [4]) was “prolonged” and the “body temperature or locomotor activity” value (rats [5]; CBN up to 80 mg/kg IP, ref Fernandes et al (1974)) was “did not influence”. For the same compound, the body temperature (rats [5]; [12]) was “reduced”, the locomotor activity (rats [5]; [12]) was “suppressed” and the “highest plasma CBN concentration (Cmax) following cannabis smoking” value [6] was 11.6 ng/mL. For the same compound, the “plasma exposures (AUC), oral lower than intraperitoneal at the same dose” value [7] was ~5 fold, the “activity at human CB1 receptors” value (human CB1 receptors [8]) was “inactive” and the “% NREM sleep compared to vehicle” value (male Long-Evans rats [9]; CBN 10 mg/kg and 100 mg/kg, various time points from ZT16–20) was “significantly increased”. The “cumulative total sleep time” value (male Long-Evans rats [9]; CBN 10 mg/kg dose only, from ZT17) was “significantly increased”, the “NREM delta power at specific time points” value (male Long-Evans rats [9]; CBN 30 mg/kg and 100 mg/kg at ZT17 and 18, zolpidem 10 mg/kg at ZT13 and 14) was “increase” and the NREM delta power (male Long-Evans rats [9]; EEG power spectra, overall effect, acute IP, CBN 10, 30, 100 mg/kg, zolpidem 10 mg/kg, 11-OH-CBN 1, 3, 10 mg/kg) was “Neither CBN nor zolpidem had robust effects”. For the same compound, the REM theta power (male Long-Evans rats [9]; EEG power spectra, acute IP, CBN 10, 30, 100 mg/kg, zolpidem 10 mg/kg, 11-OH-CBN 1, 3, 10 mg/kg) was “increased”, the “delayed onset of action on % NREM sleep, time post-dosing” value (male Long-Evans rats [9]; acute IP at ZT13) was 3 to 4 h and the total sleep time (male Long-Evans rats [9]; acute IP at ZT13 (dark phase) vs vehicle, CBN 10, 30, 100 mg/kg, zolpidem 10 mg/kg, 11-OH-CBN 1, 3, 10 mg/kg, n = 8) was “increased”. For the same compound, the “cumulative NREM time” value (male Long-Evans rats [9]; [13]) was “biphasic effect”, the “cumulative REM time” value (male Long-Evans rats [9]; [13]) was “similarly influenced” and the “% NREM sleep” value (male Long-Evans rats [9]; [14]) was “increased”. For the same compound, the “% REM sleep” value (male Long-Evans rats [9]; [14]) was “initially suppressed % REM, before it increased % REM at ZT17-18”, the “% active wake” value (male Long-Evans rats [9]; [14]) was “decreased” and the “% quiet wake” value (male Long-Evans rats [9]; [14]) was “affected”. For the same compound, the “NREM sleep onset latency” value (male Long-Evans rats [9]; [14]) was “did not affect”, the REM bout duration (male Long-Evans rats [9]; [14]) was “initially decreased REM bout duration and then increased duration of REM bouts” and the REM bout number (male Long-Evans rats [9]; [14]) was “biphasically influenced”. The “REM sleep onset latency” value (male Long-Evans rats [9]; [14]) was “increased”, the “cumulative total sleep time” value (male Long-Evans rats [9]; [14]) was “biphasic effects” and the “mean duration of NREM bouts per hour” value (male Long-Evans rats [9]; [14]) was “increased”. For the same compound, the “number of NREM bouts per hour” value (male Long-Evans rats [9]; [14]) was “decreased”, the total wake time (male Long-Evans rats [9]; [14]) was “decreased” and the body temperature (male Long-Evans rats [9]; subcutaneous, telemetry, acute IP, CBN 10, 30, 100 mg/kg, zolpidem 10 mg/kg, 11-OH-CBN 1, 3, 10 mg/kg) was “did not robustly effect”. The locomotor activity counts (male Long-Evans rats [9]; telemetry, acute IP, CBN 10, 30, 100 mg/kg, zolpidem 10 mg/kg, 11-OH-CBN 1, 3, 10 mg/kg) was “decreased”, the EC50 (human CB1 receptors [10]) was 3.98 µM and the “activity at CB1 receptors (in words)” value (human CB1 receptors [10]) was “low activity”. For the same compound, the Emax (human CB1 receptors [10]; AtT20, read-out: maximal response (Emax)) was 29 ± 3%.
